Among the data in ChEMBL document CHEMBL5465560, “Selectivity Literature for EUbOPEN Chemogenomic Library” (2024) are % of inhibition, % binding and % of control values, retold here.

For assay [1], the target named is T1, Aurora kinase A (Homo sapiens) (UniProt O14965).
T1 sequence (whole entry): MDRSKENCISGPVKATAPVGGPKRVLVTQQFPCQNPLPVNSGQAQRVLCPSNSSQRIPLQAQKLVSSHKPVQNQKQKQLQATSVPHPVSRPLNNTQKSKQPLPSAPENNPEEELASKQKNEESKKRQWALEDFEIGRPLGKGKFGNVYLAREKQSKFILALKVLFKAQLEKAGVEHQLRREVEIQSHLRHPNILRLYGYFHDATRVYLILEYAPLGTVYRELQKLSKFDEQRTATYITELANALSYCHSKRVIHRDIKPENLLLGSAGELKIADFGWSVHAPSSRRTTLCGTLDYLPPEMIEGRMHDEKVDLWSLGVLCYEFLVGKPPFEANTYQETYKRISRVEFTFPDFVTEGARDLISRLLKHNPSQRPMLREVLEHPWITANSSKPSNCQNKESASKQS
The assay is described as follows: Selectivity interaction (Kinase panel (Carna Biosciences)) EUB0001542aTs STK6. As to conditions: at 1 µM.

Assay [2] has as its target Mast/stem cell growth factor receptor Kit (Homo sapiens, UniProt P10721). Description: Selectivity interaction (KinomeScan (DiscoverX)) EUB0000229b KIT. As to conditions: at 10 µM.
Assay [3] concerns the target T2, Phosphorylase b kinase gamma catalytic chain, liver/testis isoform (Homo sapiens) (UniProt P15735).
T2 sequence (whole entry): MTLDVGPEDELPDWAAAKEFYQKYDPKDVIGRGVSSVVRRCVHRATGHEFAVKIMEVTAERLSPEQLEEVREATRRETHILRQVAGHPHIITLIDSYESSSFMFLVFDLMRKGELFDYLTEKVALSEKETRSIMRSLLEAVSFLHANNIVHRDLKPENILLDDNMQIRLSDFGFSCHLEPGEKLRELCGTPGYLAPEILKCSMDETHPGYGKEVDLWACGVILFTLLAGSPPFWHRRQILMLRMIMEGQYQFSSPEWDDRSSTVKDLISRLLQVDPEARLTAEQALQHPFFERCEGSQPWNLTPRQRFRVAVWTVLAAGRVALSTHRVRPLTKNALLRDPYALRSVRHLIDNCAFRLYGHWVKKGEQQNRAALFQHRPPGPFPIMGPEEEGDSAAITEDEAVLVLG
The assay is described as follows: Selectivity interaction (KinomeScan (DiscoverX)) EUB0000655a PHKG2. As to conditions: at 10 µM.

The target in assay [4] is Serine/threonine-protein kinase tousled-like 2 (Homo sapiens) (UniProt Q86UE8). The assay is described as follows: Selectivity interaction (KinomeScan (DiscoverX)) EUB0001619a TLK2. As to conditions: at 1 µM.
Assay [5] has as its target Serine/threonine-protein kinase 24 (Homo sapiens) (UniProt Q9Y6E0). The assay is described as follows: Selectivity interaction (ActivX KiNativ screen (ex vivo kinase selectivity in human PBMCs)) EUB0001619a STK24. Type of assay: cell-based. As to conditions: PBMC, at 1 µM.
Assay [6] concerns the target Focal adhesion kinase 1 (Homo sapiens, UniProt Q05397). The assay is described as follows: Selectivity interaction (ActivX KiNativ screen (kinase selectivity in THP-1 cell lysates)) EUB0000639a PTK2. The assay is classed as subcellular. As to conditions: lysate, at 0.04 µM.
Assay [7] addresses T3, Ephrin type-B receptor 4 (Homo sapiens) (UniProt P54760).
T3 sequence (whole entry): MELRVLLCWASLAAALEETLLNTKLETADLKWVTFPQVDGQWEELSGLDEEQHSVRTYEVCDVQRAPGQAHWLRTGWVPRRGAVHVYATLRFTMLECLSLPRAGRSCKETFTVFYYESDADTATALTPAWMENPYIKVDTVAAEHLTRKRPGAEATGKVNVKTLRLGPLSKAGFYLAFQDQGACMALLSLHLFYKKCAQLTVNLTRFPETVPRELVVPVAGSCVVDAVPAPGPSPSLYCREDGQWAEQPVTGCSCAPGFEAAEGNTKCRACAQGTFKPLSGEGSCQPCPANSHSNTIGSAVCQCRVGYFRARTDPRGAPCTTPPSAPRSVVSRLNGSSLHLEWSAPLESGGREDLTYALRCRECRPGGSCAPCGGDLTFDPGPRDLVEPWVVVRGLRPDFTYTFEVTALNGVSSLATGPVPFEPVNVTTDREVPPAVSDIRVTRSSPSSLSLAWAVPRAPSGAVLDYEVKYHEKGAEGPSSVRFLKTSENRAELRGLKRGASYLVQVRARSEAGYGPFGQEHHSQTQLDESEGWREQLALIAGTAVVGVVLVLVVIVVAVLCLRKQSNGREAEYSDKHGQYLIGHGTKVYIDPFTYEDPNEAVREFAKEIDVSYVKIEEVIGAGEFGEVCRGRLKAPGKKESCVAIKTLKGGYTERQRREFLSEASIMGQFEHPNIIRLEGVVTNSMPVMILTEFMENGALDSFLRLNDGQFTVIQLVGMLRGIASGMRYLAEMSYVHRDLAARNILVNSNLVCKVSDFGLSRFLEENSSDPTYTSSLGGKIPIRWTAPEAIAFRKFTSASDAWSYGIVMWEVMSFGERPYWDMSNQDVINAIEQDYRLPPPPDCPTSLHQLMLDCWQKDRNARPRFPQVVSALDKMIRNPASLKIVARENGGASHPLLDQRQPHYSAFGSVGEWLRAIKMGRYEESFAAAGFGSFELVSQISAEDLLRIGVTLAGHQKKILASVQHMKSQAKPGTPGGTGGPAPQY
Description: Selectivity interaction (ProQinase) EUB0000171b EPHB4.

Assay [8] has as its target Serine/threonine-protein kinase 38 (Homo sapiens) (UniProt Q15208). Description: Selectivity interaction (KinomeScan (DiscoverX)) EUB0000092b STK38. As to conditions: at 10 µM.

Chain of Serine/threonine-protein kinase tousled-like 2 (Homo sapiens) (Q86UE8 whole entry, looked up): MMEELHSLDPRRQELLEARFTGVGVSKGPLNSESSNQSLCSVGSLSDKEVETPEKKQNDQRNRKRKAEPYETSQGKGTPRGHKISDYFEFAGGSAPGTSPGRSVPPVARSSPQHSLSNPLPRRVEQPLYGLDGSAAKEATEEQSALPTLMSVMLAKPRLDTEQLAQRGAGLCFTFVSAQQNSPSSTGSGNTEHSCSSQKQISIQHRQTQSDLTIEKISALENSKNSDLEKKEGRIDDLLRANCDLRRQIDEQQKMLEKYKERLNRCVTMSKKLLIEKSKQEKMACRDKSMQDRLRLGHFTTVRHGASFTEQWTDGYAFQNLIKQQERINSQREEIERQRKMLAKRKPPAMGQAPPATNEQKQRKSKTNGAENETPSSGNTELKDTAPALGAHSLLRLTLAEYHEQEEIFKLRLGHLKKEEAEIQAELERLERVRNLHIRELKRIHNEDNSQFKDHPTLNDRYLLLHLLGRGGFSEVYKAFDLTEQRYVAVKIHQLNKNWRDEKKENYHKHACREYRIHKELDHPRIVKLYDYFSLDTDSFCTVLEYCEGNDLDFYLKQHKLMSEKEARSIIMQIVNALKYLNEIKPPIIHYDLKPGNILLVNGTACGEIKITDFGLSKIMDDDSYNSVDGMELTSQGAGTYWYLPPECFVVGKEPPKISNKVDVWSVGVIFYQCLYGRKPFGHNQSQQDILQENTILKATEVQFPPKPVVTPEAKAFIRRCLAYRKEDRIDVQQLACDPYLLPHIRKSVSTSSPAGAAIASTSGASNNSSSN
Chain of Focal adhesion kinase 1 (Q05397 2-1052 limits assumed): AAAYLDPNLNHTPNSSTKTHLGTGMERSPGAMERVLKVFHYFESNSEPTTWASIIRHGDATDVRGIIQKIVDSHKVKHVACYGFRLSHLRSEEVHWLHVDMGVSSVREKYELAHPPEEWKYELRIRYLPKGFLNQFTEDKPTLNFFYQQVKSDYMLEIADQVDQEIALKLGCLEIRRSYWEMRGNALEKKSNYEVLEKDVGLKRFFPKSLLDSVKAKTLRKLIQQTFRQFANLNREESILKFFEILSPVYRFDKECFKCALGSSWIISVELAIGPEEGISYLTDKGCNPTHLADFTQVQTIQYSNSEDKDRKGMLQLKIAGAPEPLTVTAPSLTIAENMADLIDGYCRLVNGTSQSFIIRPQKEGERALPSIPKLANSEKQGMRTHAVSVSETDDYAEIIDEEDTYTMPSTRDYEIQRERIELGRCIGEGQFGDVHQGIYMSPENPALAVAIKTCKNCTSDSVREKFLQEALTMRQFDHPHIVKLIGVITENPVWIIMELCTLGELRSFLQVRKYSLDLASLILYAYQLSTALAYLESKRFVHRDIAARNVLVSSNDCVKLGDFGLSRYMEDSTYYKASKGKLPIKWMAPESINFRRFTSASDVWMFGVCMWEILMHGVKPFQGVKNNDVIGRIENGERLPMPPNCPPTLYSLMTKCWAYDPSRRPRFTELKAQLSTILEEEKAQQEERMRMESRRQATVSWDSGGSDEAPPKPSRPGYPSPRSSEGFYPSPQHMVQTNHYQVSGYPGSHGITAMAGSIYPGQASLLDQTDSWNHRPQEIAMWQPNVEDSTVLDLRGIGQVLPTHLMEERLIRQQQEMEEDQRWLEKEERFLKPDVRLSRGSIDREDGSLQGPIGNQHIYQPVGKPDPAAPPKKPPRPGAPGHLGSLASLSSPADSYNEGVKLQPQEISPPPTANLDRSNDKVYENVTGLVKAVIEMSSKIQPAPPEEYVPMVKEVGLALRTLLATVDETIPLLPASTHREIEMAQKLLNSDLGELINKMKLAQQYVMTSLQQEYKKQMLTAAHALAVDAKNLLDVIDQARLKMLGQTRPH
Chain of Mast/stem cell growth factor receptor Kit (P10721 whole entry, canonical isoform): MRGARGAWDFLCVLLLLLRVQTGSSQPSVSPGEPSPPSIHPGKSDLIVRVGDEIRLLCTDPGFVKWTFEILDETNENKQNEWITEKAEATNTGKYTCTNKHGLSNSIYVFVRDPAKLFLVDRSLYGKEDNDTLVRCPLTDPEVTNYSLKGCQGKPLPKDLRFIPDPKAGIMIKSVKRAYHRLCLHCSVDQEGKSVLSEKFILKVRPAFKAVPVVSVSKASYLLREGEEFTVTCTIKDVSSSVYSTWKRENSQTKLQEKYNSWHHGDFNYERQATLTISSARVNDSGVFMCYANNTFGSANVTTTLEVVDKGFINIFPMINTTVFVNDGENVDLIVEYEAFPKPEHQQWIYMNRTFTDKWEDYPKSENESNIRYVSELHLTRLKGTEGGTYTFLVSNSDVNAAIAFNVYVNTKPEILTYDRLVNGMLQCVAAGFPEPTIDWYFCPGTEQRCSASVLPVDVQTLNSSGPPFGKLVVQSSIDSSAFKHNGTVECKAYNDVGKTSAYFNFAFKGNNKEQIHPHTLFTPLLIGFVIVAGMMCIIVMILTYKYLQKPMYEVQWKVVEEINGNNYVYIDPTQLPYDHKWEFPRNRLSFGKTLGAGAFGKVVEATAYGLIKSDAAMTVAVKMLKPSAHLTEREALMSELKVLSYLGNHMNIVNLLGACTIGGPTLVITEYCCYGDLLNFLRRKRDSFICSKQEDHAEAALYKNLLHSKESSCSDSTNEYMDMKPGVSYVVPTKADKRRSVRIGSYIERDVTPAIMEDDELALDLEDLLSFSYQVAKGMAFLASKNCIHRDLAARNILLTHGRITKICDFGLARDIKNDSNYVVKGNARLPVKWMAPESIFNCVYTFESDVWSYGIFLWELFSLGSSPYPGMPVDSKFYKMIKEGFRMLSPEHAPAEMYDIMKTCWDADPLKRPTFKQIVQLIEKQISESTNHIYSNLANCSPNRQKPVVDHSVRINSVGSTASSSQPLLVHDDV
Chain of Serine/threonine-protein kinase 24 (Homo sapiens) (Q9Y6E0 whole entry, looked up): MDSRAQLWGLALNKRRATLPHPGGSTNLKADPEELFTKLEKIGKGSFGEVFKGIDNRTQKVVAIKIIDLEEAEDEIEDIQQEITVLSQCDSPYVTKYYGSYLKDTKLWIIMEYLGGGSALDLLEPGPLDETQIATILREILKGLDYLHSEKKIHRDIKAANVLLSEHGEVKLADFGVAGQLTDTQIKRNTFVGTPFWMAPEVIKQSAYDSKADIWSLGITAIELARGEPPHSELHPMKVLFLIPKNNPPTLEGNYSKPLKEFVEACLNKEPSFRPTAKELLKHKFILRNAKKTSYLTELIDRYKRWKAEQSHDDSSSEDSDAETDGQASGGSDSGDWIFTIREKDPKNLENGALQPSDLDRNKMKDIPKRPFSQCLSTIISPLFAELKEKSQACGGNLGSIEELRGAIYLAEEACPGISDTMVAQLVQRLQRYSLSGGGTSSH
Chain of Serine/threonine-protein kinase 38 (Homo sapiens) (Q15208 2-465 limits assumed): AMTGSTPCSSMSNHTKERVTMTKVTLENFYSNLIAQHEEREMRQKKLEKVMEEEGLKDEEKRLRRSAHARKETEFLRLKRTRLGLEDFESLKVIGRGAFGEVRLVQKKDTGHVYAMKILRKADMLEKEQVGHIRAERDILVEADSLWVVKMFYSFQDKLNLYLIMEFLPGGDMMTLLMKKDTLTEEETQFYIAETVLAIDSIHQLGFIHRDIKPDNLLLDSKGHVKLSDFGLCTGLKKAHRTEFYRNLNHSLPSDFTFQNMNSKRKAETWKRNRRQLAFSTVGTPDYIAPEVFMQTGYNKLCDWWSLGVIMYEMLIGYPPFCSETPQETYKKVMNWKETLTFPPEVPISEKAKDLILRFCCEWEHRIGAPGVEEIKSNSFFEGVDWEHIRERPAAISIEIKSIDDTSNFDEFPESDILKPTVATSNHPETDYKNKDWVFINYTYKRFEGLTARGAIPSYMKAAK

Regarding `Cn1cc(Nc2nccc(N3CC4CCC(C3)N4C(=O)[C@@H]3CC3(F)F)n2)cn1`, the % of inhibition in assay [1] was 97%.
`COc1cc(N(C)c2ccnc3ccc(C(F)(F)F)cc23)cc(OC)c1OC` gave a % binding in assay [2] of 99%.
`CN(C)CCOc1ccc(-c2nc(-c3ccncc3)c(-c3ccc4c(c3)CC/C4=N\O)[nH]2)cc1` registered a % of control in assay [3] of 100%.
In assay [4], `N#Cc1cccc(-c2c[nH]c3ncnc(N4CCOCC4)c23)c1` came in with a % of control of 93%. For the same molecule, in assay [5], the % of inhibition was 46%.
In the case of `CC[C@@H]1[C@H](F)C(=O)N[C@@H]1COc1nccc2cc(C(N)=O)c(OC)cc12` [ZIMLOVISERTIB], the % of inhibition in assay [6] is -20.7%.
In the case of `C=CC(=O)Nc1cccc(C(=O)Nc2ccc(Nc3cc(-c4[nH]c(SC)nc4C)ccn3)cc2)c1`, the results for the % of control in assay [7] (at 1 µM) and in assay [7] (at 5 µM) were 110% and 111%, respectively.
The molecule `CCC(=O)N1CCN(c2ccc(-n3c(=O)ccc4cnc5ccc(-c6cnc7ccccc7c6)cc5c43)cc2C(F)(F)F)CC1` had a % of control in assay [8] of 100%.
